Structures can show the parent of a compound that is named as a salt.

In data set [1] the test system is Totenkopf-Aeffchen (squirrel monkeys). The data set is described as follows: Conditioned shock avoidance (Skinner cage) in squirrel monkeys. Format: in vivo. The conditions noted are these: oral in 0,9%iger wässeriger Kochsalzlösung, doses down to 2,5 mg/kg/Tag; four-hour session. An excerpt: In einem anderen Test werden Totenkopf-Aeffchen (squirrel monkeys) durch Training dazugebracht, den Hebel in einem solchen Skinner-Käfig zu drücken, um dem elektrischen Schock, der auf die Füsse durch das Bodengitter verabreicht wird, auszuweichen. Jeder Tastendruck verschiebt den elektrischen Schock um 20 Sekunden. Versäumt der Affe innerhalb von 20 Sekunden die Taste zu drücken, so wird er kurze (0,5 Sekunden) elektrische Schocks alle 20 Sekunden bis zu seinem nächsten Tastendruck erleiden. Unter Kontrollbedingungen drücken die Affen den Hebel mit einer verhältnismässig stetigen Geschwindigkeit, so dass sie selten mehr als 6 Schocks während einer vierstündigen Versuchsperiode erhalten. Man bestimmt die Anzahl der Vermeidungsreaktionen sowie die Anzahl der erhaltenen Schocks. […] Der Wirkstoff wird in niedrigen Dosen bis hinunter zu 2,5 mg/kg/Tag verabreicht. Die Untersuchung zwecks Gewinnung von Kontrollwerten wird unter Verwendung von Kochsalzlösung allein, ein Tag vor der Untersuchung der Wirkstoffe, durchgeführt.

For another data set, the system named is männlichen Albinoratten. Description: Conditioned shock avoidance (lever pressing) in rats. Format: in vivo, Ratte. Particulars: for Schockvermeidungsreaktion der Ratte: doses down to 2,5 mg/kg/Tag. An excerpt: Die Verbindungen der Erfindung zeigen wertvolle pharmakologische, z.B. stimulierende und antidepressive Wirkungen. Diese können in Tierversuchen, vorzugsweise an Säugetieren, wie Ratten oder Affen, als Testobjekte nachgewiesen werden. Die Verbindungen der Erfindung können ihnen enteral, z.B. oral, oder parenteral, z.B. subkutan, intraperitoneal oder intravenös, z.B. in Form von wässerigen Lösungen oder Stärke enthaltenden Suspensionen, verabreicht werden. Die verwendete Dosis kann in einem Bereich von ungefähr zwischen 0,1 und 100 mg/kg/Tag, vorzugsweise ungefähr 1 und 50 mg/kg/Tag, insbesondere ungefähr 5 und 25 mg/kg/Tag liegen. Die genannten stimulierenden und antidepressiven Wirkungen können z.B. an männlichen Albinoratten beobachtet werden. Die Tiere haben freien Zugang zu Futter und Wasser, mit Ausnahme der Versuchsdauer. Die Untersuchung des Tierverhaltens wird in normierten, schallisolierten Konditionierungskammern, welche einen Schalthebel enthalten, durchgeführt. Gemäss dem Test werden die Ratten durch das Bodengitter der Kammer elektrischen Schocks ausgesetzt. Der Hebel ist an eine programmierte Einrichtung, welche die Abgabe von elektrischen Schocks reguliert, angeschlossen. Die Anzahl der Betätigung des Hebels und die Anzahl der erlittenen Schocks werden registriert. Die Ratten werden vorher dazu trainiert, diesem elektrischen Impuls durch Drücken der Taste auszuweichen. Dann wird der Apparat so eingestellt, dass jede Hebelbetätigung den Schockeintritt um 30 Sekunden verschiebt. Vergisst das Tier den Hebel innerhalb dieses Zeitintervalls zu drücken, so werden alle 15 Sekunden kurze elektrische Schocks abgegeben, bis das Tier den Hebel wieder betätigt. Vor jeder Testperiode werden die Ratten, um sich zu erwärmen, 15 Minuten in den Testkammern gehalten. Während dieser Zeit wird die Anzahl der Hebelbetätigungen nicht registriert. Unmittelbar nach dieser Periode werden die Test-Verbindungen entweder in Kochsalzlösung oder in 3Xiger Maisstärke-Suspension in 5%igem wässerigem Polyäthylenglykol-400, welches auf 10 ml einen Tropfen Polyäthylen-20- sorbitanmonooleat enthält, entweder oral oder intraperitoneal vorabreicht. […] Diese erfindungsgemässe Verbindung zeigt einen einzigartigen Wirkungsmechanismus.

The subject of a further data set is antihistaminische. The data set is described as follows: Antihistaminic action (statement, no method).
Data set [2] relates to präsynaptischerc(-noradrenergischer Blocker). Description: Presynaptic alpha-noradrenergic blockade (statement, no method). Particulars: compared in kind with Mianserin.
Another data set concerns anticholinergische. The data set is described as follows: Anticholinergic action (statement, no method).
The subject of another data set is biogener Amine. The data set is described as follows: Uptake inhibition of biogenic amines (statement, no method).

As to `O=C1NCCN1C1CCN(CC[C@H]2COc3ccccc3O2)CC1` [1-(S)-Hydrobromid], in data set [1], the “Anzahl der erlittenen Schocks” value is recorded as “positive Aenderungen” and the “Ausmass der Vermeidungsreaktionen” value is on record as “positive Aenderungen”. In addition, the “Schockvermeidungsreaktion der Ratte” value in the data set with männlichen Albinoratten (intraperitoneal) is recorded as “erhöht signifikant”.

With `O=C1NCCN1C1CCN(CCC2COc3ccccc3O2)CC1` (racemic) [1-[1-[2-(1,4-Benzodioxan-2-yl)-äthyl]-4-piperidyl]-2-imidazolidinon], the “antihistaminische Wirkung” value in the data set with antihistaminische is listed as “noch eine antihistaminische Wirkung”. Also, the “Zunahme der Schockvermeidungsreaktion, comparison with Methylphenidat” value with männlichen Albinoratten (compared with 5 mg/kg/Tag Methylphenidat intraperitoneal) is on record as “vorteilhaft”. The “Schockvermeidungsreaktion der Ratte” value in the data set on männlichen Albinoratten (intraperitoneal) is recorded as “erhöht signifikant”. In addition, the “präsynaptischerc(-noradrenergischer Blocker)” value in data set [2] is reported as “kein präsynaptischerc(-noradrenergischer Blocker”. Besides, the “anticholinergische Wirkung” value in the data set on anticholinergische is given as “weder eine anticholinergische”. Besides, the “Aufnahmehemmer biogener Amine” value in the data set with biogener Amine is reported as “kein Aufnahmehemmer biogener Amine”.

Take `COC(=O)C(c1ccccc1)C1CCCCN1` (stereo not shown) [Methylphenidat, reference compound]: the “Zunahme der Schockvermeidungsreaktion” value in the data set on männlichen Albinoratten (5 mg/kg/Tag, intraperitoneal) was “Zunahme der Schockvermeidungsreaktion”.

Values taken from patent EP0004358A1, “N-oxacyclylalkyl piperidines, process for their preparation, pharmaceutical compositions containing these compounds” (priority 1978, dated 1979).
